PMC3286537 (Purinergic Signalling, 2011)
Numbering of substitutions follows the chain as printed. Read-outs that look alike come from different tables or passages of the source.

Columns and labels:
[1] = target: T1, human adenosine A2BR mutant Y202S^5.58 (Homo sapiens, UniProt P29275, Y202S); assay: Liquid yeast growth assay, mutant Y202S
T1 sequence (P29275 1-332 Y202S): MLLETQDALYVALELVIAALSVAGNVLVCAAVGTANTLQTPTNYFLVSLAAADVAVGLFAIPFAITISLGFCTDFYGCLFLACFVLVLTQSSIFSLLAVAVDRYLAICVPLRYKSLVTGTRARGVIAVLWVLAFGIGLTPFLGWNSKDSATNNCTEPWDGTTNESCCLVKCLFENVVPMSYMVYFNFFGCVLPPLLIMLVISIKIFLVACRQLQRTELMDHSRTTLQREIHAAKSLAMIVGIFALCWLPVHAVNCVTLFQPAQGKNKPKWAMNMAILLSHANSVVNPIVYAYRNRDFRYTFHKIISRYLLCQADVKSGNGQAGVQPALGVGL

[2] = target: T2, human adenosine A2BR mutant C167S^EL2 (Homo sapiens, UniProt P29275, C167S); assay: Liquid yeast growth assay, mutant C167S
T2 sequence (P29275 1-332 C167S): T1 sequence (P29275 1-332 Y202S) with C167S, S202Y

[3] = test system: A2BR mutant C167^EL2 to serine; settings: C167^EL2 mutated to serine; cited from earlier work
[4] = target: T1, human adenosine A2BR mutant Y202S^5.58; assay: Solid yeast growth assay, mutant Y202S; assay type: cell-based; settings: inverse agonist response
[5] = test system: other 11 mutant adenosine A2BRs; assay: Solid yeast growth assay, the other 11 mutant receptors; assay type: cell-based, human; settings: 10 μM ZM241385
hA2BR [6] = target: T3, hA2BR (Homo sapiens, UniProt P29275); settings: CHO cell membranes expressing the hA2BR; cited from earlier work
T3 sequence (P29275 1-332): T1 sequence (P29275 1-332 Y202S) with S202Y

hA2BR [7] = target: T3, hA2BR; assay: Saturation binding on whole yeast cells expressing the hA2BR; settings: read-out: K D, yeast

## N#Cc1c(N)nc(SCC(N)=O)c(C#N)c1-c1ccc(OCC2CC2)cc1 [BAY 60-6583, 2-[6-amino-3,5-dicyano-4-[4-(cyclopropylmethoxy)phenyl]pyridin-2-ylsulfanyl]acetamide]
[1]
  fold increase in potency compared with wild type: 10 fold
[2]
  fold increase in potency compared with wild type: 2 fold
[3]
  fold increase in potency: 2.5 fold

## Nc1nc(NCCc2ccc(O)cc2)nc2nc(-c3ccco3)nn12 [ZM241385, 4-{2-[7-amino-2-(2-furyl)[1,2,4]triazolo-[2,3-a][1,3,5]triazin-5-yl-amino]ethyl}phenol]
[4]
  effect on constitutive activity: could be reduced to wild-type levels
[5]
  effect on constitutive activity: could be fully suppressed

## CCCn1c(=O)[nH]c2nc(-c3ccc(S(=O)(=O)N4CCN(c5ccc(Cl)cc5)CC4)cc3)[nH]c2c1=O [[^3H]PSB-603]
hA2BR [6]
  Kd: 0.4 ± 0.19 nM
hA2BR [7]
  Kd: 0.81 ± 0.02 nM
